Results: article PMC4287394 (Clinical cancer research : an official journal of the …, 2014)

Assay: Phase I safety: adverse events, DLT, MTD, RP2D
Type: in vivo, human
[1] = 15mg 21/28, 4 patients, all grades
[2] = 30mg 21/28, 3 patients, all grades
[3] = 45mg 21/28, 4 patients, all grades
[4] = 60mg 21/28, 4 patients, all grades
[5] = 80mg 21/28, 3 patients, all grades
[6] = 100mg 21/28, 5 patients, all grades
[7] = 130mg 21/28, 3 patients, all grades
[8] = 130mg 21/28, 3 patients, grade ≥3
[9] = 180mg 21/28, 3 patients, all grades
[10] = 245mg 21/28, 3 patients, all grades
[11] = 330mg 21/28, 7 patients, all grades

CS(=O)(=O)N1CCN(Cc2cc3nc(-c4cccc5[nH]ncc45)nc(N4CCOCC4)c3s2)CC1 [pictilisib, 2-(1H-indazol-4-yl)-6-(4-methanesulfonyl-piperazin-1-ylmethyl)-4-morpholin-4-yl-t hieno[3,2-d]pyrimidine]
3: Any treatment-related adverse event, no. of patients [5] | Any treatment-related adverse event, no. of patients [6] | Nausea, no. of patients with treatment-related AE [6] | Any treatment-related adverse event, no. of patients [10] | Diarrhea, no. of patients with treatment-related AE [11] | Vomiting, no. of patients with treatment-related AE [11]
7: Any treatment-related adverse event, no. of patients [11]
4: Fatigue, no. of patients with treatment-related AE [11] | Nausea, no. of patients with treatment-related AE [11] | Rash (all rash preferred terms), no. of patients with treatment-related AE [11]
1: Dysgeusia, no. of patients with treatment-related AE [1] | Nausea, no. of patients with treatment-related AE [1] | Any treatment-related adverse event, no. of patients [2] | Dysgeusia, no. of patients with treatment-related AE [3] | Diarrhea, no. of patients with treatment-related AE [4] | Diarrhea, no. of patients with treatment-related AE [5] | Dysgeusia, no. of patients with treatment-related AE [5] | Nausea, no. of patients with treatment-related AE [5] | Vomiting, no. of patients with treatment-related AE [5] | Diarrhea, no. of patients with treatment-related AE [6] | Fatigue, no. of patients with treatment-related AE [6] | Patients with grade 4 hyperglycemia (130mg) | Any treatment-related adverse event, no. of patients [7] | Any treatment-related adverse event, no. of patients [8] | Decreased appetite, no. of patients with treatment-related AE [9] | Diarrhea, no. of patients with treatment-related AE [9] | Dysgeusia, no. of patients with treatment-related AE [9] | Fatigue, no. of patients with treatment-related AE [9] | Rash (all rash preferred terms), no. of patients with treatment-related AE [9] | Decreased appetite, no. of patients with treatment-related AE [10] | Fatigue, no. of patients with treatment-related AE [10] | Nausea, no. of patients with treatment-related AE [10] | Xeroderma, no. of patients with treatment-related AE [10] | Dysgeusia, no. of patients with treatment-related AE [11]
2: Any treatment-related adverse event, no. of patients [1] | Any treatment-related adverse event, no. of patients [3] | Diarrhea, no. of patients with treatment-related AE [3] | Any treatment-related adverse event, no. of patients [4] | Nausea, no. of patients with treatment-related AE [4] | Vomiting, no. of patients with treatment-related AE [4] | Fatigue, no. of patients with treatment-related AE [5] | Any treatment-related adverse event, no. of patients [9] | Diarrhea, no. of patients with treatment-related AE [10] | Decreased appetite, no. of patients with treatment-related AE [11] | Xeroderma, no. of patients with treatment-related AE [11]
0: Decreased appetite, no. of patients with treatment-related AE [1] | Diarrhea, no. of patients with treatment-related AE [1] | Fatigue, no. of patients with treatment-related AE [1] | Rash (all rash preferred terms), no. of patients with treatment-related AE [1] | Vomiting, no. of patients with treatment-related AE [1] | Xeroderma, no. of patients with treatment-related AE [1] | Decreased appetite, no. of patients with treatment-related AE [2] | Diarrhea, no. of patients with treatment-related AE [2] | Dysgeusia, no. of patients with treatment-related AE [2] | Fatigue, no. of patients with treatment-related AE [2] | Nausea, no. of patients with treatment-related AE [2] | Rash (all rash preferred terms), no. of patients with treatment-related AE [2] | Vomiting, no. of patients with treatment-related AE [2] | Xeroderma, no. of patients with treatment-related AE [2] | Decreased appetite, no. of patients with treatment-related AE [3] | Fatigue, no. of patients with treatment-related AE [3] | Nausea, no. of patients with treatment-related AE [3] | Rash (all rash preferred terms), no. of patients with treatment-related AE [3] | Vomiting, no. of patients with treatment-related AE [3] | Xeroderma, no. of patients with treatment-related AE [3] | Decreased appetite, no. of patients with treatment-related AE [4] | Dysgeusia, no. of patients with treatment-related AE [4] | Fatigue, no. of patients with treatment-related AE [4] | Rash (all rash preferred terms), no. of patients with treatment-related AE [4] | Xeroderma, no. of patients with treatment-related AE [4] | Decreased appetite, no. of patients with treatment-related AE [5] | Rash (all rash preferred terms), no. of patients with treatment-related AE [5] | Xeroderma, no. of patients with treatment-related AE [5] | Decreased appetite, no. of patients with treatment-related AE [6] | Dysgeusia, no. of patients with treatment-related AE [6] | Rash (all rash preferred terms), no. of patients with treatment-related AE [6] | Vomiting, no. of patients with treatment-related AE [6] | Xeroderma, no. of patients with treatment-related AE [6] | Decreased appetite, no. of patients with treatment-related AE [7] | Diarrhea, no. of patients with treatment-related AE [7] | Dysgeusia, no. of patients with treatment-related AE [7] | Fatigue, no. of patients with treatment-related AE [7] | Nausea, no. of patients with treatment-related AE [7] | Rash (all rash preferred terms), no. of patients with treatment-related AE [7] | Vomiting, no. of patients with treatment-related AE [7] | Xeroderma, no. of patients with treatment-related AE [7] | Decreased appetite, no. of patients with treatment-related AE [8] | Diarrhea, no. of patients with treatment-related AE [8] | Dysgeusia, no. of patients with treatment-related AE [8] | Fatigue, no. of patients with treatment-related AE [8] | Nausea, no. of patients with treatment-related AE [8] | Rash (all rash preferred terms), no. of patients with treatment-related AE [8] | Vomiting, no. of patients with treatment-related AE [8] | Xeroderma, no. of patients with treatment-related AE [8] | Nausea, no. of patients with treatment-related AE [9] | Vomiting, no. of patients with treatment-related AE [9] | Xeroderma, no. of patients with treatment-related AE [9] | Dysgeusia, no. of patients with treatment-related AE [10] | Rash (all rash preferred terms), no. of patients with treatment-related AE [10] | Vomiting, no. of patients with treatment-related AE [10]
